Target: T1, human PKCθ full length enzyme (Homo sapiens, UniProt Q04759)
T1 construct: human PKCθ full length enzyme (Panvera Catalog No. P2996); purchased Panvera P2996
Test: PKCθ IMAP Assay
Type: biochemical
Details: average value when one or more samples were tested; ATP 6 uM, PKCθ 1 nM
Description: The materials used include the following: human PKCθ full length enzyme (Panvera Catalog No. P2996); substrate peptide: 5FAM-[…]-OH (Molecular Devices, RP7032); ATP (Sigma Cat # A2383); DTT (Pierce, 20291); 5× kinase reaction buffer (Molecular Devices, R7209); 5× binding buffer A (Molecular Devices, R7282), 5× binding buffer B (Molecular Devices, R7209); IMAP Beads (Molecular Devices, R7284); and 384-well plates (Corning Costar, 3710).
The reaction buffer was prepared by diluting the 5× stock reaction buffer and adding DTT to obtain a concentration of 3.0 mM. The binding buffer was prepared by diluting the 5× binding buffer A. A master mix solution was prepared using a 90% dilution of the reaction buffer containing 2×ATP (12 uM) and 2× peptide ([…]). […] The final concentration of compound was 2× and 10% DMSO. DMSO was added to the rest of the master mix to increase the concentration to 10%. 10 ul of the master mix containing 10% DMSO was added to the rest of the wells on the plate except the 2nd column. 20 ul was transferred from the first column to the 2nd column. The compounds were serially diluted in 2:1 ratio starting from the 2nd column. A 2× (2 nM) PKCθ solution was made in the reaction buffer. 10 ul of the PKCθ solution was added to every well to achieve these final concentrations: PKCθ—1 nM; ATP—6 uM; peptide—100 nM; DMSO—5%. Samples were incubated for 25 minutes at room temperature. The binding reagent was prepared by diluting the beads in 1× binding buffer to 800:1. 50 ul of the binding reagent was added to every well and incubated for 20 minutes. FP was measured using Envision2100 (PerkinElmer Life Sciences). Wells with no ATPs and wells with no enzymes were used as controls.

T1 sequence (Q04759 whole entry): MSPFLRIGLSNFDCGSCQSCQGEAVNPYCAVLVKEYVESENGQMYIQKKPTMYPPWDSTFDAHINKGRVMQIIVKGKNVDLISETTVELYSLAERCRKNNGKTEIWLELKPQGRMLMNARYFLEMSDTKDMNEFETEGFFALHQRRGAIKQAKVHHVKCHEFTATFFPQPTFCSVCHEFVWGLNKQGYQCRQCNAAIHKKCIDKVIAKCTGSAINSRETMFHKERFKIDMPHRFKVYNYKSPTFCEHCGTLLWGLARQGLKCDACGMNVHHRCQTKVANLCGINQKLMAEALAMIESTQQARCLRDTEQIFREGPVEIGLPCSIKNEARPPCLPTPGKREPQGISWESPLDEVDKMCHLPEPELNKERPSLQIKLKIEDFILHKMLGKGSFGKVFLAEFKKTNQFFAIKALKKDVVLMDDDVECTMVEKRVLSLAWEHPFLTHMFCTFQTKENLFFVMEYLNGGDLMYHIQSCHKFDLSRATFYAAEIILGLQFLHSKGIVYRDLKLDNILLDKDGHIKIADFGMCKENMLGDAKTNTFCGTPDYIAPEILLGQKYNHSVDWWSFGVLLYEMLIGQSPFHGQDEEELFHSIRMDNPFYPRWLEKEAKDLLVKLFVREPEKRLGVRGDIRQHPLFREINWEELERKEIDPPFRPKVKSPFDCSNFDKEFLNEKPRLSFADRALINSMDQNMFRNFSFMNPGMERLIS

Row | SMILES | IC50 [nM]
1 | N#Cc1cnc2sc(-c3cccc(CN4CCN(CCn5ccnc5)CC4)c3)cc2c1Nc1ccc2[nH]ccc2c1 [Compound 175, 2-[3-({4-[2-(1H-imidazol-1-yl)ethyl]piperazin-1-yl}methyl)phenyl]-4-(1H-indol-5-ylamino)thieno[2,3-b]pyridine-5-carbonitrile] | 280
2 | N#Cc1cnc2sc(-c3cccc(CN4CCC(O)CC4)c3)cc2c1Nc1ccc2[nH]ccc2c1 [Compound 176, 2-{3-[(4-hydroxypiperidin-1-yl)methyl]phenyl}-4-(1H-indol-5-ylamino) thieno[2,3-b]pyridine-5-carbonitrile] | 170
3 | N#Cc1cnc2sc(-c3cccc(CN4CCC(CCO)CC4)c3)cc2c1Nc1ccc2[nH]ccc2c1 [Compound 177, 2-(3-{[4-(2-hydroxyethyl)piperidin-1-yl]methyl}phenyl)-4-(1H-indol-5-ylamino)thieno[2,3-b]pyridine-5-carbonitrile] | 170
4 | COCCN1CCN(Cc2cccc(-c3cc4c(Nc5ccc6[nH]ccc6c5)c(C#N)cnc4s3)c2)CC1 [Compound 178, 4-(1H-indol-5-ylamino)-2-(3-{[4-(2-methoxyethyl)piperazin-1-yl]methyl}phenyl)thieno[2,3-b]pyridine-5-carbonitrile] | 300
5 | N#Cc1cnc2sc(-c3cccc(CNCC4CCCO4)c3)cc2c1Nc1ccc2[nH]ccc2c1 (stereo not shown) [Compound 179, 4-(1H-indol-5-ylamino)-2-(3-{[(tetrahydrofuran-2-ylmethyl)amino]methyl}phenyl) thieno[2,3-b] pyridine-5-carbonitrile] | 150
6 | N#Cc1cnc2sc(-c3cccc(CNCCCN4CCOCC4)c3)cc2c1Nc1ccc2[nH]ccc2c1 [Compound 180, 4-(1H-indol-5-ylamino)-2-(3-{[(3-morpholin-4-ylpropyl)amino]methyl}phenyl)thieno[2,3-b]pyridine-5-carbonitrile] | 110
7 | N#Cc1cnc2sc(-c3cccc(CN4CCN(CCOCCO)CC4)c3)cc2c1Nc1ccc2[nH]ccc2c1 [Compound 181, 2-[3-({4-[2-(2-hydroxyethoxy)ethyl]piperazin-1-yl}methyl)phenyl]-4-(1H-indol-5-ylamino)thieno[2,3-b]pyridine-5-carbonitrile] | 180
8 | N#Cc1cnc2sc(-c3cccc(CN4CCCCC4CO)c3)cc2c1Nc1ccc2[nH]ccc2c1 (stereo not shown) [Compound 182] | 130
9 | N#Cc1cnc2sc(-c3cccc(CNCCOCCO)c3)cc2c1Nc1ccc2[nH]ccc2c1 [Compound 183, 2-[3-({[2-(2-hydroxyethoxy)ethyl]amino}methyl)phenyl]-4-(1H-indol-5-ylamino)thieno[2,3-b]pyridine-5-carbonitrile] | 79
10 | N#Cc1cnc2sc(-c3cccc(CO)c3)cc2c1Nc1cccc2[nH]ccc12 [Compound 193, 2-[3-(hydroxymethyl)phenyl]-4-(1H-indol-4-ylamino)thieno[2,3-b]pyridine-5-carbonitrile] | 53
11 | CN(C)C(=O)c1cccc(-c2cc3c(Nc4cccc5[nH]ccc45)c(C#N)cnc3s2)c1 [Compound 194, 3-[5-cyano-4-(1H-indol-4-ylamino)thieno[2,3-b]pyridine-2-yl]-N,N-dimethylbenzamide] | 120
12 | CN(C)C(=O)c1cccc(-c2cc3c(Nc4ccc5[nH]ccc5c4)c(C#N)cnc3s2)c1 [Compound 195, 3-[5-cyano-4-(1H-indol-5-ylamino)thieno[2,3-b]pyridine-2-yl]-N,N-dimethylbenzamide] | 420
13 | N#Cc1cnc2sc(-c3cccc(CN)c3)cc2c1Nc1ccc2[nH]ccc2c1 [Compound 196, 2-[3-(aminomethyl)phenyl]-4-(1H-indol-5-ylamino)thieno[2,3-b]pyridine-5-carbonitrile] | 38
14 | CN(C)c1cccc(-c2cc3c(Nc4ccc5[nH]ccc5c4)c(C#N)cnc3s2)c1 [Compound 197, 2-[3-(dimethylamino)phenyl]-4-(1H-indol-5-ylamino)thieno[2,3-b]pyridine-5-carbonitrile] | 480
15 | CNS(=O)(=O)c1ccc(-c2cc3c(Nc4ccc5[nH]ccc5c4)c(C#N)cnc3s2)cc1 [Compound 198, 4-[5-cyano-4-(1H-indol-5-ylamino)thieno[2,3-b]pyridin-2-yl]-N-methylbenzenesulfonamide] | 59

Now from value to compound:

Row | IC50 [nM] | SMILES
16 | 16 | Cc1c(Nc2c(C#N)cnc3sc(-c4cccc(C=O)c4)cc23)ccc2[nH]ccc12 [Compound 201, 2-(3-formylphenyl)-4-[(4-methyl-1H-indol-5-yl)amino]thieno[2,3-b]pyridine-5-carbonitrile]
17 | 100 | COc1ccc(C=O)cc1-c1cc2c(Nc3ccc4[nH]ccc4c3)c(C#N)cnc2s1 [Compound 202, 2-(5-formyl-2-methoxyphenyl)-4-(1H-indol-5-ylamino)thieno[2,3-b]pyridine-5-carbonitrile]
18 | 37 | CN(C)Cc1cc(-c2cc3c(Nc4ccc5[nH]ccc5c4)c(C#N)cnc3s2)cs1 [Compound 212, 2-{5-[(dimethylamino)methyl]-3-thienyl}-4-(1H-indol-5-ylamino)thieno[2,3-b]pyridine-5-carbonitrile]
19 | 84 | CN(C)Cc1cccc(C#Cc2cc3c(Nc4cccc5[nH]ccc45)c(C#N)cnc3s2)n1 [Compound 219, 2-({6-[(dimethylamino)methyl]pyridin-2-yl}ethynyl)-4-(1H-indol-4-ylamino)thieno[2,3-b]pyridine-5-carbonitrile]
20 | 14 | Cc1c(Nc2c(C#N)cnc3sc(C#Cc4cccc(CN(C)C)n4)cc23)ccc2[nH]ccc12 [Compound 220, 2-({6-[(dimethylamino)methyl]pyridin-2-yl}ethynyl)-4-(4-methyl-1H-indol-5-ylamino)thieno[2,3-b]pyridine-5-carbonitrile]
21 | > 1500 | N#Cc1cnc2sc(C#Cc3cnc(N)nc3)cc2c1Nc1ccc2[nH]ccc2c1 [Compound 228, 2-[(2-aminopyrimidin-5-yl)ethynyl]-4-(1H-indol-5-ylamino)thieno[2,3-b]pyridine-5-carbonitrile]
22 | 790 | CN(C)Cc1ccc(C#Cc2cc3c(Nc4ccc5[nH]ccc5c4)c(C#N)cnc3s2)nc1 [Compound 229, 2-({5-[(dimethylamino)methyl]pyridin-2-yl}ethynyl)-4-(1H-indol-5-ylamino) thieno[2,3-b]pyridine-5-carbonitrile]
23 | 9 | CNS(=O)(=O)c1ccc(-c2cc3c(Nc4ccc5[nH]ccc5c4C)c(C#N)cnc3s2)cc1 [Compound 230, 4-{5-cyano-4-[(4-methyl-1H-indol-5-yl)amino]thieno[2,3-b]pyridin-2-yl}-N-methylbenzenesulfonamide]
24 | 210 | CN(C)S(=O)(=O)c1ccc(-c2cc3c(Nc4ccc5[nH]ccc5c4)c(C#N)cnc3s2)cc1 [Compound 231, 4-[5-cyano-4-(1H-indol-5-ylamino)thieno[2,3-b]pyridin-2-yl]-N,N-dimethylbenzenesulfonamide]
25 | 340 | N#Cc1cnc2sc(-c3ccc(S(=O)(=O)NCCO)cc3)cc2c1Nc1ccc2[nH]ccc2c1 [Compound 232, 4-[5-cyano-4-(1H-indol-5-ylamino)thieno[2,3-b]pyridin-2-yl]-N-(2-hydroxyethyl)benzenesulfonamide]
26 | 40000 | N#Cc1cnc2sc(-c3ccc(S(=O)(=O)NC4CCCCC4)cc3)cc2c1Nc1ccc2[nH]ccc2c1 [Compound 233, 4-[5-cyano-4-(1H-indol-5-ylamino)thieno[2,3-b]pyridin-2-yl]-N-cyclohexylbenzenesulfonamide]
27 | 130 | CS(=O)(=O)c1ccc(-c2cc3c(Nc4ccc5[nH]ccc5c4)c(C#N)cnc3s2)cc1 [Compound 234, 4-(1H-indol-5-ylamino)-2-[4-(methylsulfonyl)phenyl]thieno[2,3-b]pyridine-5-carbonitrile]
28 | 1200 | CS(=O)(=O)Nc1ccc(-c2cc3c(Nc4ccc5[nH]ccc5c4)c(C#N)cnc3s2)cc1 [Compound 235, N-{4-[5-cyano-4-(1H-indol-5-ylamino)thieno[2,3-b]pyridin-2-yl]phenyl}methanesulfonamide]
29 | 20 | Cc1c(Nc2c(C#N)cnc3sc(-c4ccc(S(=O)(=O)N(C)C)cc4)cc23)ccc2[nH]ccc12 [Compound 236, 4-{5-cyano-4-[(4-methyl-1H-indol-5-yl)amino]thieno[2,3-b]pyridin-2-yl}-N,N-dimethylbenzenesulfonamide]
30 | 50 | Cc1c(Nc2c(C#N)cnc3sc(-c4cccc(S(=O)(=O)N(C)C)c4)cc23)ccc2[nH]ccc12 [Compound 237, 3-{5-cyano-4-[(4-methyl-1H-indol-5-yl)amino]thieno[2,3-b]pyridin-2-yl}-N,N-dimethylbenzenesulfonamide]
31 | 440 | Cc1c(Nc2c(C#N)cnc3sc(-c4ccccc4S(=O)(=O)N(C)C)cc23)ccc2[nH]ccc12 [Compound 238, 2-{5-cyano-4-[(4-methyl-1H-indol-5-yl)amino]thieno[2,3-b]pyridin-2-yl}-N,N-dimethylbenzenesulfonamide]

From patent publication US20070082880A1 (priority 2005, published 2007)
